The values below come from publication PMC7583847 (2020).

Holding throughout (experiment): UV melting at 260 nm
Experiment [1] concerns polyAH+-polyAH+ (RNA, polymer, protonated adenines (pH 5)) A. Conditions: Na+ (sodium cacodylate, I = 0.05 M); sodium cacodylate pH 5.0; r = 0.2; second transition of poly A-poly U (free Tm 80.1 °C); per base.
Experiment [2] has as its system pApU (RNA, polymer) A/U. Conditions: Na+ (sodium cacodylate, I = 0.05 M); sodium cacodylate pH 7.0; r = [compound]/[polynucleotide] = 0.2; per base.
The subject of experiment [3] is p(dAdT)2 (DNA, polymer) AT. Conditions: Na+ (sodium cacodylate, I = 0.05 M); sodium cacodylate pH 7.0; r = [compound]/[polynucleotide] = 0.2; per base.

Take `COC(=O)C(Cc1cn(CCCCN2C=CC(=Cc3sc4ccc(Br)cc4[n+]3C)c3ccccc32)nn1)NC(=O)c1ccc(C(=O)NC(=N)N)[nH]1` (stereo not drawn): the values for the thermal shift (ΔTm) in experiment [1], in experiment [2] and in experiment [3] were 1.0 ± 0.5 °C, 3.0 ± 0.5 °C and 1.1 ± 0.5 °C, respectively.

For the compound `COC(=O)C(Cc1cn(CCCC[n+]2c(C=C3C=CN(C)c4ccccc43)sc3ccc(Br)cc32)nn1)NC(=O)c1ccc(C(=O)NC(=N)N)[nH]1` (stereo not drawn), the ΔTm in experiment [1] was 1.0 ± 0.5 °C; in experiment [2] it was 1.0 ± 0.5 °C; in experiment [3], 0.3 ± 0.5 °C.

For orientation: ΔTm means the change in melting temperature against a reference sample.
